Where “and” joins values, the source holds several entries; their conditions need not be identical. Equal entries are not always repeated.
These compounds were tested against T1, Alpha-bungarotoxin (Bungarus multicinctus, UniProt P60615).
T1 sequence (P60615 whole entry): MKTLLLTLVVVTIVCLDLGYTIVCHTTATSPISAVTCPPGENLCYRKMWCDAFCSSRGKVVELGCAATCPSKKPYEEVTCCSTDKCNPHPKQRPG

SMILES | Ki
C[N+](C)(C)C | 2.4 µM
C=C(C=O)C[C@H]1C[C@H](O)[C@]2(C)O[C@@H]3C[C@@H]4O[C@@H]5C[C@]6(C)O[C@]7(C)CC[C@@H]8O[C@@H]9C[C@]%10(C)O[C@@H]%11C(C)=CC(=O)O[C@H]%11C[C@H]%10O[C@H]9C[C@@H](C)[C@H]8O[C@H]7C[C@H]6O[C@@]5(C)C/C=C\[C@H]4O[C@H]3C[C@H]2O1 | 0.00035 µM and 0.00023 µM
CC[N+](CC)(CC)CC | > 10 µM
O=c1cccc2n1C[C@H]1CNC[C@H]2C1 [(1S,9R)-7,11-diazatricyclo[7.3.1.0~2,7~]trideca-2,4-dien-6-one] | 1.8 µM
C[N+](C)(C)CCOC(N)=O [(2-Hydroxyethyl)trimethyl ammonium chloride carbamate] | 9.3 µM
CN1CCC[C@H]1c1cccnc1 [(R,S)-nicotine] | 1.7 µM and 0.9 µM
COc1cc2c3cc1Oc1cc(ccc1O)C[C@H]1c4c(cc(OC)c(O)c4Oc4ccc(cc4)C[C@@H]3N(C)CC2)CC[N+]1(C)C [CAS_57-94-3] | 5.6 µM
C[N+]1(C)CCN(c2ccccc2)CC1 [DMPP] | 0.67 µM
CCN1C[C@]2(COC(=O)c3ccccc3-n3c(O)cc(C)c3O)CC[C@H](OC)[C@]34C5C[C@@H]6[C@@H](OC)C[C@@](O)(C5[C@H]6OC)[C@@](O)(C13)[C@@H](OC)C24 (stereo partly drawn) [[(1S,4S,5R,6S,8R,9R,13S,16S,18S)-11-ethyl-8,9-dihydroxy-4,6,16,18-tetramethoxy-11-azahexacyclo[7.7.2.1^{2,5}.0^{1,10}.0^{3,8}.0^{13,17}]nonadecan-13-yl]methyl 2-[(3S)-3-methyl-2,5-dioxopyrrolidin-1-yl]benzoate] | 0.0079 µM and 0.0031 µM

Source: BindingDB's records for doi:10.1046/j.1471-4159.1996.67010145.x (Mcgill University, 1996)
